Laboratory results reported in patent US20230321063A1, “COMPOSITIONS AND METHODS TO REDUCE NEUROINFLAMMATION” (Seattle Children's Hospital d/b/a Seattle Children's …, priority 2020, published 2023).
“Also recorded” adds a separate entry of the source.

Columns and labels:
[1] = system: Ndufs4(KO) mice; experiment: Body weight, growth and cachexia onset; format: in vivo, mouse
Method: (§1) Ndufs4(+/−) mice were bred to produce Ndufs4(KO) (Ndufs4(−/−)) offspring. Mice were weaned at 20-21 days of age. Ndufs4(KO) animals were housed with a minimum of one control littermate for warmth and stimulation. Mice were weighed, and health assessed, a minimum of 3 times per week, every other day (daily for IP injected mice, see herein). Where longitudinal blood point-of-care data was collected, this was performed during these health checks. Wetted chow in a dish on the bottom of each cage, and in-cage water bottles, were provided to all cages housing Ndufs4(KO) mice following the onset of disease so that the ability to find or reach food or water was not a limiting factor for survival.
Cachexia in FIG. 4H and FIG. 6E is the day of life when weight peaks prior to the progressive weight loss which occurs in untreated Ndufs4(KO) animals.

[2] = system: Ndufs4(KO) mice; experiment: Longitudinal assessment of neurological disease symptoms (clasping, ataxia, circling); format: in vivo, mouse; conditions: Ndufs4(KO) mice vs untreated
Method: Longitudinal assessments of neurological disease symptoms. Clasping, ataxia, and circling were assessed by visual scoring, as previously described. As disease progresses in the Ndufs4(KO) mice animals display intermittent/transient improvement of symptoms. […] For observational assessments, lab-wide quality control discussions occurred frequently to ensure consistency between technicians/researchers. Technicians contributed equally to each treatment group to minimize any potential bias between individuals.

[3] = system: Ndufs4(KO) mouse model of LS; experiment: Survival studies and overall disease course in Ndufs4(KO) mice; format: in vivo; conditions: for impact on disease (overall) / disease or survival: Ndufs4(KO) mice; for survival: Ndufs4(KO) mice vs untreated
Method: as §1
Doses of each drug was based on published data for use in animals. […] Blood and tissue concentrations reached biologically relevant levels for each of the tested inhibitors.
Pharmacologic interventions and chow formulation. Standard mouse chow was ground to a power and mixed with drugs at the doses desired (see FIGS. 4A-4L). 300 mL of 1% agar melted in sterile water was added per kilogram of powdered chow and the mixture was pelleted and baked at 37° C. for 3-5 hours to dry. Pellets were then stored at 4° C. for short term (up to 90 days) or −20° C. for long-term (up to 6 months) storage. It was previously shown that this processing had no impact on animal health or survival (Johnson et al. Front Genet. 2015; 6:247). […]
To determine whether the benefits of mTOR inhibition in Ndufs4(KO) model result from disruption of PI3K mediated signaling, animals were treated from weaning (post-natal day 21, P21) with potent, orally available, isoform specific inhibitors of the catalytic subunits of PI3K: BYL719, GSK2636771, CAL-101, and IPI-549, inhibitors of p110α, p110β, p110δ, and p110γ, respectively.

[4] = system: Ndufs4(KO) mice; experiment: Rotarod assay; format: in vivo, mouse; conditions: latency to fall up to 10 min, 6 rpm
Method: Rotarod and rotarod seizures. Rotarod assays were performed using a Med Associates Inc. (Fairfax, VT) ENV-571M single lane rotarod with a black mat installed in the floor of the lane to reduce visibility of the bottom. Assays were performed by placing animals onto an already rotating rod and timing latency to fall, with a steady rotation speed set to 6 rpm (controlled by attached laptop and Med Associates software). The maximum time of each trial was 10 min, with the trial ending at that time if mice were still on the rotarod. For each assay, three trials were performed, with a minimum of 5 min between each assay. The best of the three trials was reported for the rotarod data. As detailed in the text and figure legends, rotarod was performed each 10 days of age from P30; mice in a given age group were the reported age +/−1 day.

[5] = system: control and Ndufs4(KO) mice; experiment: Glucose tolerance test (GTT) and glucose induced lactate test; format: in vivo, mouse; conditions: 2 g/kg glucose IP; pexidartinib 300 mg/kg/d in chow, IPI-549 100 mg/kg/d in chow, rapamycin (ABI-009) 8 mg/kg/d IP
Excerpt: (§2) Point-of-care glucose and lactate testing. Blood glucose and lactate measurements were collected using point-of-care meters (Prodigy Autocode® glucose meter, product #51850-3466188, Prodigy® Diabetes Care, LLC, Charlotte, NC; lactate assay meter, product #40828, Nova Biomedical, Waltham, MA) and the tail-prick method, as previously described (Stokes et al. Elife 2021; 10:e65400).
Glucose tolerance test (GTT) and glucose induced lactate test. Prior to performing the GTT, mice were fasted for 4 hours, from 10 AM-2 PM. The fasting duration was limited to 4 hours given the sensitivity of untreated Ndufs4(KO) animals to hypoglycemia and related sequelae (dysregulation of body temperature, hypoglycemia induced seizure, etc.). For the ABI-009 cohort, mice received their daily ABI-009 treatment at the start of this fasting period. At the end of the 4 hour fast, baseline blood glucose and lactate values were collecting using point-of-care meters and the tail-prick method. Mice were then injected by IP with 2 g/kg dextrose (10 microliters/gram body weight of 200 mg/mL glucose in 1×PBS, 0.2 micron sterile filtered) using an insulin syringe (31-gauge, 6 mm length, 3/10 cc, BD Veo Ultra-Fine needle). Glucose and lactate levels were measured using a minimally invasive tail-prick method at designated timepoints post-injection.

[6] = system: Ndufs4(KO) mice; experiment: Point-of-care blood glucose by age; format: in vivo, mouse
Excerpt: as §2

[7] = system: Ndufs4(KO) mice; conditions: rapamycin at doses sufficient to attenuate disease; Johnson et al.; cited from earlier work

SMILES	growth and body size ([1]; compared with mTOR inhibition)	onset of symptoms: forelimb clasping, ataxia, and circling [2]	impact on disease (overall) / disease or survival [3]	survival [3]	cachexia [1]	performance on rotarod assay [4]	blood lactate spike in response to a glucose bolus [5]	hypoglycemia (blood glucose) [6]	median survival ([3]; Ndufs4(KO) mice treated from weaning (P21) via chow, untreated 60) [days]	developmental weight gain and maximum body size [7]
Cc1nc(NC(=O)N2CCC[C@H]2C(N)=O)sc1-c1ccnc(C(C)(C)C(F)(F)F)c1 [BYL719, (2S)-1-N-[4-methyl-5-[2-(1,1,1-trifluoro-2-methylpropan-2-yl)pyridin-4-yl]-1,3-thiazol-2-yl]pyrrolidine-1,2-dicarboxamide]	extremely small body size; also recorded: severely impaired growth and size	statistically significant delay in symptom onset	only modestly impacting disease	extension of survival						
C[C@H](NC(=O)c1c(N)nn2cccnc12)c1cc2cccc(C#Cc3cnn(C)c3)c2c(=O)n1-c1ccccc1 [IPI-549, 2-amino-N-[(1S)-1-[8-[2-(1-methylpyrazol-4-yl)ethynyl]-1-oxo-2-phenylisoquinolin-3-yl]ethyl]pyrazolo[1,5-a]pyrimidine-3-carboxamide]		significantly delayed the onset	attenuated disease	markedly extended survival	prevented	improved	similarly prevented the lactate sequelae	prevented	110	
CO[C@H]1C[C@@H]2CC[C@@H](C)[C@@](O)(O2)C(=O)C(=O)N2CCCC[C@H]2C(=O)O[C@H]([C@H](C)C[C@@H]2CC[C@@H](O)[C@H](OC)C2)CC(=O)[C@H](C)/C=C(\C)[C@@H](O)[C@@H](OC)C(=O)[C@H](C)C[C@H](C)/C=C/C=C/C=C/1C [rapamycin]										significant reductions
